Measured values: patent US4521335A, “Aglycone and pseudo-aglycones of the AAD 216 antibiotics” (SmithKline Beckman Corporation, priority 1984, dated 1985)

What was measured:
[1] = test system: inoculum (ileal or cecal cannula filtrate); assay: swine in vitro model, growth promotant activity; conditions: 5 hours, 37° C.; for GLU (% Control): glucose; for LAC (% Control): lactic acid; for LYS (% Control): lysine; for VFA (% Control): total volatile fatty acids
[2] = test system: inoculum (rumen cannula filtrate); assay: rumen in vitro model, growth promotant activity; conditions: for GLU (% Control): glucose; for Propionate % (% Control): propionate as percentage of total VFA; for VFA (% Control): total volatile fatty acids; for LYS (% Control): lysine

## avoparcin
[1]; experiment II, 1.67 ppm
  GLU (% Control): 115 % Control
  LAC (% Control): 102 % Control
  LYS (% Control): 101 % Control

## Virginiamycin
[1]; experiment I, 1.67 ppm
  GLU (% Control): 182 % Control
  LAC (% Control): 70 % Control
  LYS (% Control): 82 % Control
[1]; experiment I, 16.67 ppm
  GLU (% Control): 191 % Control
  LAC (% Control): 76 % Control
  LYS (% Control): 127 % Control
[1]; experiment I, 166.67 ppm
  GLU (% Control): 197 % Control
  LAC (% Control): 81 % Control
  LYS (% Control): 163 % Control
  VFA (% Control): 93 % Control
[1]; experiment II, 1.67 ppm
  GLU (% Control): 837 % Control
  LAC (% Control): 21 % Control
  LYS (% Control): 96 % Control
  VFA (% Control): 240 % Control

## CC[C@@]1([C@H]2O[C@H]([C@H]3O[C@@](O)(CO)[C@H](C)C[C@@H]3C)C[C@H]2C)CC[C@H]([C@@]2(C)CC[C@]3(C[C@H](O)[C@@H](C)[C@@H]([C@H](C)[C@H](OC)[C@@H](C)C(=O)O)O3)O2)O1 [Monensin Sodium]
[2]; experiment III, 0.5 ppm
  GLU (% Control): 11 % Control
  Propionate % (% Control): 119 % Control
  VFA (% Control): 94 % Control
[2]; experiment III, 5.0 ppm
  GLU (% Control): 126 % Control
  LYS (% Control): 141 % Control
  Propionate % (% Control): 149 % Control
  VFA (% Control): 104 % Control
[2]; experiment III, 50.0 ppm
  GLU (% Control): 0 % Control
  LYS (% Control): 147 % Control
  Propionate % (% Control): 156 % Control
[2]; experiment IV, 5.0 ppm
  LYS (% Control): 595 % Control
  Propionate % (% Control): 161 % Control
  VFA (% Control): 106 % Control
